Laboratory results: PMC2905049 (Bioorganic & medicinal chemistry, 2010)

Key:
HIV-1IIIB = experiment: Anti-HIV replication assay against wild-type HIV-1IIIB in MT-2 cell line; type: cell-based; settings: for EC50 (μM): HIV-1IIIB replication in MT-2 cell line; for EC50: Human immunodeficiency virus 1, MT2
MT-2 cell line = experiment: Compound toxicity by XTT in mock-infected MT-2 cells; type: cell-based; settings: Homo sapiens, MT2
HIV-1NL4-3 = experiment: Anti-HIV replication assay against HIV-1NL4-3 in MT-4 cell line; type: cell-based; settings: for EC50: Human immunodeficiency virus 1, MT4, read-out: HIV-1NL4-3 EC50 (μM); for EC50 (μM): HIV-1NL4-3, MT-4 cell line, Table 3 screening, 9 as control
[1] = tested on: RTMDR (multi-RT inhibitor-resistant strain); experiment: Anti-HIV replication assay against RTMDR strain in MT-4 cell line; type: cell-based, HIV-1; settings: Human immunodeficiency virus 1, MT4, read-out: RTMDR EC50 (μM)

SMILES	EC50 (μM) (HIV-1IIIB; Table 1)	EC50 (HIV-1IIIB)	EC50 (HIV-1NL4-3)	EC50 [1]	also measured
Cc1cn([C@H]2C[C@H](N=[N+]=[N-])[C@@H](CO)O2)c(=O)[nH]c1=O [AZT, zidovudine, reference compound]					TI (HIV-1IIIB; therapeutic index IC50/EC50, HIV-1IIIB, MT-2, Table 1): 42700; IC50 (MT-2 cell line): 1870 µM
CCc1cc(=O)c2ccc3c(c2o1)[C@@H](OC(=O)[C@@]12CC[C@@](C)(C(=O)O1)C2(C)C)[C@@H](OC(=O)[C@@]12CC[C@@](C)(C(=O)O1)C2(C)C)C(C)(C)O3 [Compound 3, reference compound]					HIV-1NL4-3 TI (HIV-1NL4-3; therapeutic index IC50/EC50, MT-4, Table 2 screening): 116
CC(=O)c1ccc2c(c1C)[C@@H](OC(=O)[C@@]13CC[C@@](C)(C(=O)O1)C3(C)C)[C@@H](OC(=O)[C@@]13CC[C@@](C)(C(=O)O1)C3(C)C)C(C)(C)O2 [Compound 4, 3R,4R-Dicamphanoyloxy-2,2,5-trimethyl-6-acetyl-2H-chroman]	did not show anti-HIV activity	> 20 µM			
CCOc1c(C(C)=O)ccc2c1[C@@H](OC(=O)[C@@]13CC[C@@](C)(C(=O)O1)C3(C)C)[C@@H](OC(=O)[C@@]13CC[C@@](C)(C(=O)O1)C3(C)C)C(C)(C)O2 [Compound 5]	moderate activity				
Cc1cc(=O)oc2cc(OC(C)(C)[C@@H](COC(=O)[C@@]34CC[C@@](C)(C(=O)O3)C4(C)C)OC(=O)[C@@]34CC[C@@](C)(C(=O)O3)C4(C)C)ccc12 [Compound 6, 7-(2R,3-Di-O-(−)-camphanoyloxy-1,1-dimethylpropoxy)-4-methyl-2H-chromen-2-one]		> 20 µM	> 20 µM	> 20 µM	
Cc1cc(=O)oc2c([C@H](COC(=O)[C@@]34CC[C@@](C)(C(=O)O3)C4(C)C)OC(=O)[C@@]34CC[C@@](C)(C(=O)O3)C4(C)C)c(OC(C)C)ccc12 [Compound 7, 8-(1R,2-Di-O-(−)-camphanoyloxyethyl)-7-isopropoxy-4-methyl-2H-chromen-2-one]		> 20 µM	> 20 µM	> 20 µM	
Cc1cc(=O)oc2c([C@H](C)OC(=O)[C@@]34CC[C@@](C)(C(=O)O3)C4(C)C)c(OC(C)C)ccc12 [Compound 8]	lost anti-HIV activity completely	> 20 µM	> 20 µM	> 20 µM	
Cc1cc(=O)oc2c(CSC(=O)[C@@]34CC[C@@](C)(C(=O)O3)C4(C)C)c(OC(C)C)ccc12 [Compound 13]					EC50 (μM) (HIV-1NL4-3): moderate activity
COc1ccc(N(Cc2c(OC(C)C)ccc3c(C)cc(=O)oc23)C(=O)[C@@]23CC[C@@](C)(C(=O)O2)C3(C)C)cc1 [Compound 16, 8-[(N-4-Methoxyphenyl-N-(−)-camphanoyl)aminomethyl]-7-isopropoxy-4-methyl-2H-chromen-2-one]					EC50 (μM) (HIV-1NL4-3): moderate activity
